Reference: the supplement of paper PMC10307832

What was measured:
Test in all cases: relative viability (nuclei count vs DMSO), 5 days (fraction); higher = more cells survive
Obatoclax + Luminespib = compound: COC1=CC(c2cc3ccccc3[nH]2)=N/C1=C\c1[nH]c(C)cc1C [Obatoclax] + CCNC(=O)c1noc(-c2cc(C(C)C)c(O)cc2O)c1-c1ccc(CN2CCOCC2)cc1 [Luminespib] (partner 0.01 µM)
How it was run: (§1)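 Medians of duplicate plates are given as relative viability. That measure is the nuclei count in treated wells divided by the count in vehicle wells. Counts were taken on 4× images of lung cancer cell lines in 1536-well plates, 5 days after pin-tool dosing the day after seeding with one drug alone or a fixed anchor-drug dose plus five library-drug doses (not always all listed) in √10 steps.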

Bortezomib + Lapatinib = compound: CC(C)C[C@H](NC(=O)[C@H](Cc1ccccc1)NC(=O)c1cnccn1)B(O)O [Bortezomib] + CS(=O)(=O)CCNCc1ccc(-c2ccc3ncnc(Nc4ccc(OCc5cccc(F)c5)c(Cl)c4)c3c2)o1 [Lapatinib] (partner 2 µM)
How it was run: as §1

Obatoclax + OSI-027 = compound: COC1=CC(c2cc3ccccc3[nH]2)=N/C1=C\c1[nH]c(C)cc1C [Obatoclax] + COc1cccc2cc(-c3nc([C@H]4CC[C@H](C(=O)O)CC4)n4ncnc(N)c34)[nH]c12 [OSI-027] (partner 0.5 µM)
How it was run: as §1

[1] = compound: CC1=CC(=NN1)NC2=CC(=NC(=N2)/C=C/C3=CC=CC=C3)N4CCN(CC4)C + N=C(N)NC(=N)NCCc1ccccc1 [Phenformin] (partner 250 µM)
How it was run: as §1

Obatoclax + Tozasertib = compound: COC1=CC(c2cc3ccccc3[nH]2)=N/C1=C\c1[nH]c(C)cc1C [Obatoclax] + Cc1cc(Nc2cc(N3CCN(C)CC3)nc(Sc3ccc(NC(=O)C4CC4)cc3)n2)n[nH]1 [Tozasertib] (partner 0.1 µM)
How it was run: as §1

## NCI-H650
Obatoclax + Luminespib; first compound 0.01 µM
  relative viability: 0.712
Obatoclax + Luminespib; first compound 0.03162 µM
  relative viability: 0.802
Obatoclax + Luminespib; first compound 0.3162 µM
  relative viability: 0.44
Obatoclax + Luminespib; first compound 1 µM
  relative viability: 0.305
Bortezomib + Lapatinib; first compound 0.000632 µM
  relative viability: 0.596
Bortezomib + Lapatinib; first compound 0.002 µM
  relative viability: 1.02
Bortezomib + Lapatinib; first compound 0.006325 µM
  relative viability: 0.382
Bortezomib + Lapatinib; first compound 0.02 µM
  relative viability: 0.175
Obatoclax + OSI-027; first compound 0.01 µM
  relative viability: 0.568
Obatoclax + OSI-027; first compound 0.03162 µM
  relative viability: 0.449
Obatoclax + OSI-027; first compound 0.3162 µM
  relative viability: 0.419
Obatoclax + OSI-027; first compound 1 µM
  relative viability: 0.274
[1]; first compound 0.253 µM
  relative viability: 0.521
[1]; first compound 0.8 µM
  relative viability: 0.483
[1]; first compound 2.53 µM
  relative viability: 0.371
[1]; first compound 8 µM
  relative viability: 0.181
Obatoclax + Tozasertib; first compound 0.01 µM
  relative viability: 0.732
Obatoclax + Tozasertib; first compound 0.03162 µM
  relative viability: 0.779
Obatoclax + Tozasertib; first compound 0.3162 µM
  relative viability: 0.631
Obatoclax + Tozasertib; first compound 1 µM
  relative viability: 0.309
